Laboratory results: publication PMC12648310, “Modular Assembled Targeting Chimera Enables Multimodal Targeted Protein Degradation” (JACS Au, 2025)
Where two headings read alike, the source gives them in different places.

How the values were obtained:
[1] = target: T1, BRD4 (Homo sapiens, UniProt O60885); assay: Immunoblot of BRD4 degradation in MDA-MB-231 cells; assay type: cell-based; details: component without its click partner
T1 construct: Western blot analysis of BET protein levels was performed across these 11 module assembly combinations; endogenous in cells; host or cells: MDA-MB-231
Method: deprotection under General Procedure I, followed by condensation with compound 4 under General Procedure II, yielded AN2-C3-Tz as a purple oil in 60% yield (over two steps from 25).
The full NMR and MS spectra of the synthesized degrader compounds were shown in Appendix A and B, respectively. The degrader compounds were dissolved in DMSO as 10 mM stock solution and stored at -20℃, freeze-thaw cycle was avoided. Inhibitors for bioassays were purchased from […]
Cell culture and drug treatment
The breast cancer cells and leukemia cells used were purchased from Wuhan Purdue Life Technology Co., Ltd. All cell lines were tested for mycoplasma to ensure no contamination. […]
The fluorescence spectrum of POM-dTz was measured using a Hitachi F4500. […]
P0013G) premixed with a protease inhibitor cocktail. […] The supernatant was quantified and adjusted using a bicinchoninic acid (BCA) method and then boiled in an SDS loading buffer. […] After another 3 washes with TBST, the membrane was incubated with an enzymatic chemiluminescence (ECL) reagent, and the signal was detected instantly by a chemiluminescence imager (JP-K600, Jiapeng, Shanghai, China).
The signal values were quantified by ImageJ software. The expression level of a target protein was determined by the ratio of its signal value to GAPDH’s. […]

[2] = Pharmacokinetics in SD rats; assay type: in vivo, Sprague–Dawley (SD) rats; details: for half-life / AUC(0-inf) / AUC(0-t) / Cmax / Tmax / bioavailability / C0 / Vd / clearance / MRT inf: male, Sprague-Dawley, rat, plasma; for clearance: read-out: CL_obs; for MRT inf: read-out: MRTinf_obs
Method: Given the favorable cellular performance of the POM-dmTz and JQ1-TCO stoichiometric ratio, we further investigated their in vivo pharmacokinetic (PK) profiles (Figure ). […] Blood samples were collected from the jugular vein at 5 min, 15 min, 30 min, 1, 2, 4, 7, and 24 h postdosing for drug concentration analysis.
This pharmacokinetic study protocol used SPF grade male SD rats (6-8 weeks old, weight 200-300g, supplied by a biotechnology company in Beijing) to evaluate the metabolic characteristics of compound GP262 through intravenous injection (IV) and intraperitoneal injection (IP). The IV group received a dose of 5 mg/kg (2.5 mg/mL concentration, 2 mL/kg administration), while the IP group […]
consisted of 3 fasted animals. The IV group solvent was a mixed system containing 10% DMSO, 60% PEG400, and 30% water. Collect whole blood samples at 5 minutes, 15 minutes, 0.5 hours, 1, 2, 4, 7, and 24 hours after administration. Immediately after collection with EDTA-K2 anticoagulant tube, centrifuge at 4 ℃ and 4000 × g for 5 minutes. Separate the plasma and transfer it to an anticoagulant free EP tube. Store it at -75 ± 15 ℃ for testing at ultra-low temperature. Throughout the experiment, a dual drug group parallel control was set up, and standardized operating procedures were used to ensure the timeliness and storage stability of plasma separation, providing standardized biological samples for subsequent LC-MS/MS analysis. […]

**Q.** For `Cc1nnc(CNC(=O)CCOCC(COCCC(=O)NCc2nnc(C)nn2)NC(=O)COc2cccc3c2C(=O)N(C2CCC(=O)NC2=O)C3=O)nn1` (stereo not shown) [POM-dmTz], which “BRD4 degradation by single component alone” value [1] is on record?
**A.** neither component alone triggered detectable degradation

**Q.** And the T1/2 ([2]; IP 10 mg/kg)?
**A.** shorter half-life

**Q.** And the half-life ([2]; IP 10 mg/kg)?
**A.** 22.6 min

**Q.** And the AUC(0-inf) ([2]; IP 10 mg/kg, mean)?
**A.** 406 ng·h/mL

**Q.** And the AUC(0-t) ([2]; IP 10 mg/kg, mean)?
**A.** 405 ng·h/mL

**Q.** What about the Cmax ([2]; IP 10 mg/kg, mean) of the same molecule?
**A.** 398 ng/mL

**Q.** And the Tmax ([2]; IP 10 mg/kg, mean)?
**A.** 25 min

**Q.** What about the bioavailability ([2]; IP 10 mg/kg, mean) of the same molecule?
**A.** 40.5%

**Q.** What about the AUC(0-inf) ([2]; IV 5 mg/kg, mean) of the same molecule?
**A.** 500 ng·h/mL

**Q.** And the AUC(0-t) ([2]; IV 5 mg/kg, mean)?
**A.** 496 ng·h/mL

**Q.** And the C0 ([2]; IV 5 mg/kg, mean)?
**A.** 1850 ng/mL

**Q.** What about the Vd ([2]; IV 5 mg/kg, mean) of the same molecule?
**A.** 9.39 L/kg

**Q.** What about the half-life ([2]; IV 5 mg/kg, mean) of the same molecule?
**A.** 40.2 min

**Q.** And the clearance ([2]; IV 5 mg/kg, mean)?
**A.** 171 mL/min/kg

**Q.** What about the MRT inf ([2]; IV 5 mg/kg, mean) of the same molecule?
**A.** 21.3 min

**Q.** With `Cc1sc2c(c1C)C(c1ccc(Cl)cc1)=NC(CC(=O)NCCNC(=O)OC1CCC=CCCC1)c1nnc(C)n1-2` (stereo not shown) [JQ1-TCO] as the molecule, how does the “BRD4 degradation by single component alone” value [1] read?
**A.** neither component alone triggered detectable degradation

**Q.** What about the half-life ([2]; IP 10 mg/kg) of the same molecule?
**A.** ~124 min

**Q.** What about the AUC(0-inf) ([2]; IP 20 mg/kg, mean) of the same molecule?
**A.** 7670 ng·h/mL

**Q.** And the AUC(0-t) ([2]; IP 20 mg/kg, mean)?
**A.** 7660 ng·h/mL

**Q.** And the Cmax ([2]; IP 20 mg/kg, mean)?
**A.** 1860 ng/mL

**Q.** What about the Tmax ([2]; IP 20 mg/kg, mean) of the same molecule?
**A.** 25 min

**Q.** And the bioavailability ([2]; IP 20 mg/kg, mean)?
**A.** 64%

**Q.** What about the half-life ([2]; IP 20 mg/kg, mean) of the same molecule?
**A.** 124 min

**Q.** And the MRT inf ([2]; IP 20 mg/kg, mean)?
**A.** 193 min

**Q.** And the AUC(0-inf) ([2]; IV 5 mg/kg, mean)?
**A.** 1240 ng·h/mL

**Q.** What about the AUC(0-t) ([2]; IV 5 mg/kg, mean) of the same molecule?
**A.** 1240 ng·h/mL

**Q.** And the C0 ([2]; IV 5 mg/kg, mean)?
**A.** 2030 ng/mL

**Q.** What about the Vd ([2]; IV 5 mg/kg, mean) of the same molecule?
**A.** 10.3 L/kg

**Q.** What about the half-life ([2]; IV 5 mg/kg, mean) of the same molecule?
**A.** 118 min

**Q.** What about the clearance ([2]; IV 5 mg/kg, mean) of the same molecule?
**A.** 69 mL/min/kg

**Q.** And the MRT inf ([2]; IV 5 mg/kg, mean)?
**A.** 44 min
